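Dose response: 5 concentrations. Exposure: 48 h. Format: 96-well plates. Endpoint: linear interpolation; highest concentration if not reached. Here, GI50 denotes the concentration required for 50% inhibition of growth.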 Activity calls are given as the source filed them. Rule as the data show it: active = GI50 up to about 1.1 µM and inactive = higher.
Legend:
Assay in all cases: growth of human tumour cells (NCI), 48 h
[1] = test system: SR
[2] = test system: MCF7
[3] = test system: HOP-92
[4] = test system: HCC 2998
[5] = test system: SF-295
[6] = test system: RPMI-8226
[7] = test system: SN12C
[8] = test system: T47D
[9] = test system: OVCAR-4
[10] = test system: MDA-MB-231
[11] = test system: NCI-H23
[12] = test system: DU-145
[13] = test system: SNB-75
[14] = test system: EKVX
[15] = test system: PC-3
[16] = test system: M14
[17] = test system: UO-31
[18] = test system: MOLT-4
[19] = test system: HL-60
[20] = test system: Malme-3M

Measured: GI50

CC1(C)OCC2OC3([C@@H]4OC(C)(C)O[C@H]4CO)OC(C)(C)OC3C2O1 (stereo partly specified)
inactive: [1] > 100 µM | [2] > 100 µM | [3] > 100 µM | [4] > 100 µM | [5] > 100 µM | [6] > 100 µM | [7] > 100 µM | [8] > 100 µM | [9] > 100 µM | [10] > 100 µM | [11] > 100 µM | [12] > 100 µM | [13] > 100 µM | [14] > 100 µM | [15] > 100 µM | [16] > 100 µM | [17] > 100 µM | [18] > 100 µM

COc1ccc2c(c1)CCCN1CCc3ccccc3C21 (stereo unspecified)
inactive: [1] 20 µM | [2] 69.7 µM | [3] 37.2 µM | [4] 69 µM | [5] 24.7 µM | [19] 17.1 µM | [7] 23.3 µM | [8] 77.3 µM | [9] > 100 µM | [10] 23.9 µM | [20] 37.2 µM | [11] 35.7 µM | [12] > 100 µM | [13] 16.4 µM | [14] 76.4 µM | [15] 41.5 µM | [16] 20.4 µM | [18] 80.4 µM

Sc1nc2c(c(-c3nc(S)nc4c3CCCCCCCCCC4)n1)CCCCCCCCCC2
inactive: [1] > 100 µM | [2] > 100 µM | [3] > 100 µM | [4] > 100 µM | [5] > 100 µM | [19] > 100 µM | [7] > 100 µM | [8] > 100 µM | [9] > 100 µM | [10] > 100 µM | [20] > 100 µM | [11] > 100 µM | [12] > 100 µM | [13] > 100 µM | [14] > 100 µM | [15] > 100 µM | [16] > 100 µM | [17] > 100 µM | [18] > 100 µM

O=[N+]([O-])c1cc(F)ccc1S(=O)(=O)c1ccccc1
inactive: [1] > 10 µM | [2] > 10 µM | [3] > 10 µM | [4] > 10 µM | [5] > 10 µM | [6] > 10 µM | [19] > 10 µM | [7] > 10 µM | [8] > 10 µM | [9] > 10 µM | [10] > 10 µM | [20] > 10 µM | [11] > 10 µM | [12] > 10 µM | [13] > 10 µM | [14] 5.14 µM | [15] > 10 µM | [16] > 10 µM | [18] > 10 µM

c1ccc2c(C3CCN(CCN4CCOCC4)C3)c[nH]c2c1 (stereo unspecified)
inactive: [1] > 100 µM | [2] > 100 µM | [3] > 100 µM | [4] 47 µM | [5] > 100 µM | [6] > 100 µM | [19] > 100 µM | [7] > 100 µM | [8] > 100 µM | [9] > 100 µM | [10] > 100 µM | [20] > 100 µM | [11] > 100 µM | [12] > 100 µM | [13] > 100 µM | [14] > 100 µM | [15] > 100 µM | [16] > 100 µM | [17] > 100 µM

O=C(NCCCCNCCCNC(=O)C(F)(F)F)C(F)(F)F
inactive: [1] > 100 µM | [2] > 100 µM | [3] > 100 µM | [4] > 100 µM | [5] 32.6 µM | [6] > 100 µM | [19] 5.07 µM | [7] > 100 µM | [8] > 100 µM | [9] > 100 µM | [10] > 100 µM | [11] > 100 µM | [12] > 100 µM | [13] > 100 µM | [14] > 100 µM | [15] > 100 µM | [16] > 100 µM | [17] > 100 µM | [18] > 100 µM

CCOC(=O)Cn1c(=O)c2nc(SC)sc2n(-c2ccccc2)c1=S
inactive: [1] > 100 µM | [2] > 100 µM | [3] 4.8 µM | [4] 40 µM | [5] 32.5 µM | [6] > 100 µM | [19] 32.3 µM | [7] 35.9 µM | [8] 40.8 µM | [9] 15.3 µM | [10] 22.3 µM | [20] 18.8 µM | [11] 36.5 µM | [12] > 100 µM | [13] 4.1 µM | [15] 26.2 µM | [16] 32.5 µM | [17] 4.43 µM | [18] > 100 µM

From ChEMBL document CHEMBL1201862, “PubChem BioAssay data set” (2004)
